In patent publication US12186312B2, “Sleep improving agent” (Amino Up Co., Ltd., priority 2016, dated 2025):

Columns and labels:
[1] = system: HSP70 mRNA expression in human promyelocytic leukemia cells (HL-60 cells); assay: Evaluation of HSP70 mRNA expression-inducing activity in HL-60 cells; format: cell-based; settings: for concentration at which HSP70 mRNA expression inducing ability was increased up to 150% relative to the control: 4 hours at 37° C., corrected with beta 2 microglobulin gene; for HSP70 mRNA expression as compared with the control: 4 hours, FIGS. 1-3, percentages for the control
Protocol: The HSP70 expression-inducing activity by Compounds 1-3 was evaluated by measuring a HSP70 mRNA expression level.
Human promyelocytic leukemia cells (HL-60 cells) was suspended in RPMI 1640 medium supplemented with 10% fetal bovine serum, and was transferred into a 1.5 mL tube (45,000 cells/0.9 mL). To the tube was added 0.1 mL of each sample that had been prepared in a 1% DMSO solution and the tube was allowed to stand at 37° C. for 4 hours. To a control was added 0.1 mL of 1% DMSO solution. After cultured for 4 hours, the cells was centrifuged by a small refrigerated centrifuge (1,000 g×5 minutes) to precipitate the HL-60 cells. After removal of the supernatant, the cells were lysed in 0.25 mL Trizol (manufactured by Thermo Fisher Scientific) and then total RNA was extracted according to the protocol. The RNA was dissolved in RNase-free water, and the concentration of the RNA (wave length 260 nm) was measured by using a microvolume spectrophotometer NanoDrop 2000/2000c (manufactured by Thermo Fisher Scientific). The RNA solution was diluted with RNase-free water so as to have a concentration of 50 ng/mL, and then cDNA was synthesized by using ReverTra Ace® qPCR RT Kit (manufactured by TOYOBO). The reaction liquid (10 μl) after the reverse transcription was diluted with RNase-free water so as to be 100 μL, and then used as a template for PCR. Beta 2 microglobulin gene was used as an internal control gene for correction of the HSP70 gene expression. The primer sequences of genes used for the PCR reaction are as follows.
The expression was analyzed by using CFX Connect Real-Time PCR Detection System (manufactured by Bio-rad). 10 μL of the PCR reaction liquid was incubated at 95° C. for 3 minutes (initial denaturation), followed by repetition of 55 cycles comprising denaturation at 95° C. for 10 seconds, and annealing and extension at 57.8° C. for 30 seconds. Finally, the melting curve was measured every 0.2° C. in the range from 65° C. to 95° C. Expression levels of HSP70 gene and internal standard gene were analyzed using Bio-Rad CFX Manager 3.1.

male Wistar rats = assay: Light period activity level after 8-hour phase advance (model of mild sleep disorder), dietary administration; format: in vivo, rat; settings: for activity level of Day 1 and Day 2 during the light period compared with the Control group: Dunnett test with mixed model for repeated measures; for activity level on Day 1, light period (12 hours) after the phase advance compared with the Control group: Dunnett test
Description: Firstly, 7-week old male Wistar rats were implanted intraperitoneally with a small activity meter (NanoTag®, Kissei Comtech Co., Ltd.). Subsequently, after a week of recovery period, the rats were divided into four groups (Control group, Compound A-1 group, Compound A-2 group, and Compound A-3 group; n=17 each) shown in Table 1 by stratified randomization assignment using body weight as an index, and test diets were dietary administered to them. At the 15th day from the start of dietary administration, the light/dark cycle was advanced by 8 hours, and after that, dietary administration of test diets was continued for 2 weeks. The light/dark cycle of the breeding environment excluding the phase advance date was set to 12 hours cycle, and the illuminance of the light period was set to be approximately 200 1× (185-230 1×). In this model of mild sleep disorder with the phase advance, the influence of test feed administration on the light period activity level after the phase advance was examined.
The test was carried out by a two-sided test, the significance level of the test was set to 5%, and the trend difference was 10% on both sides. For the analysis, SAS software release 9.3 (manufactured by SAS Institute Japan Ltd.) was used.

SMILES: CC(C)C[C@@H]1NC(=O)[C@@H]2CCCN2C1=O [Compound 1, (3S,8aS)-3-isobutylhexahydropyrrolo[1,2-a]pyrazine-1,4-dione]
- concentration at which HSP70 mRNA expression inducing ability was increased up to 150% relative to the control [1]: 0.083 mg/mL
- HSP70 mRNA expression as compared with the control [1]: enhanced mRNA expression of HSP70 gene
- activity level of Day 1 and Day 2 during the light period compared with the Control group (male Wistar rats; Compound A-2 group: MF containing 0.005% of Compound A (6.25 mg/kg BW/day), P=0.0481): significantly inhibited the activity level
- activity level on Day 1, light period (12 hours) after the phase advance compared with the Control group (male Wistar rats; Compound A-2 group: MF containing 0.005% of Compound A (6.25 mg/kg BW/day), P=0.016): significantly suppressed the activity level
- activity level of Day 1 and Day 2 during the light period compared with the Control group (male Wistar rats; Compound A-3 group: MF containing 0.05% of Compound A (62.46 mg/kg BW/day), P=0.0978): tendency to suppress the activity level
- activity level on Day 1, light period (12 hours) after the phase advance compared with the Control group (male Wistar rats; Compound A-3 group: MF containing 0.05% of Compound A (62.46 mg/kg BW/day), P=0.0536): tended to suppress the activity level

SMILES: O=C1N[C@@H](Cc2ccc(O)cc2)C(=O)N2CCC[C@@H]12 [Compound 3, (3S,8aS)-3-(4-hydroxybenzyl)hexahydropyrrolo[1,2-a]pyrazine-1,4-dione]
- concentration at which HSP70 mRNA expression inducing ability was increased up to 150% relative to the control [1]: 0.101 mg/mL
- HSP70 mRNA expression as compared with the control [1]: enhanced mRNA expression of HSP70 gene

SMILES: O=C1N[C@@H](Cc2ccccc2)C(=O)N2CCC[C@@H]12 [Compound 2, (3S,8aS)-3-benzylhexahydropyrrolo[1,2-a]pyrazine-1,4-dione]
- concentration at which HSP70 mRNA expression inducing ability was increased up to 150% relative to the control [1]: 0.045 mg/mL
- HSP70 mRNA expression as compared with the control [1]: enhanced mRNA expression of HSP70 gene
